In patent publication US8106031B2, “Hydrolytically-resistant boron-containing therapeutics and methods of use” (Anacor Pharmaceuticals, Inc., priority 2006, dated 2012):
Values after ≈ are worked out from the molar mass of the structure shown. Read-outs that look alike come from different tables or passages of the source.

Legend:
Candida albicans = assay: MIC against C. albicans (NCCLS broth dilution); type: cell-based; details: for MIC: Candida albicans, read-out: Minimum inhibitory concentration, C. albicans
Description: (§1) To determine the antifungal activity of these compounds we screened for their minimum inhibitory concentrations (MIC) against the major dermatophytes that cause onychomycosis, T. rubrum and T. mentagrophytes, and against the yeasts and molds C. albicans, C. neoformans and A. fumigatus to test for their broad spectrum activity. The antifungal agent ciclopirox, currently in use for the topical treatment of onychomycosis, was used as a reference.
(§2) All MIC testing against Trichophyton rubrum, Trichophyton mentagrophytes, Candida albicans, Cryptococcus neoformans and Aspergillus fumigatus were determined following the National Committee for Clinical Laboratory Standards (NCCLS) guidelines for antimicrobial testing of yeasts and filamentous fungi.^i,ii
(§3) Two-fold serial dilutions of the test compounds were prepared in 96-well plates. […] Pfaller M A, Chaturvedi V, Espinel-Ingroff A, Ghannoum M A, Gosey L L, Odds F C, Rex J H, Rinaldi M G, Sheehan D J, Walsh T J, Warnock D W. NCCLS publication M27-A2—Reference Method for Broth Dilution Antifungal Susceptibility Testing of Yeasts; Approved Standard—Second Edition. […] Pfaller M A, Chaturvedi V, Espinel-Ingroff A, Ghannoum M A, Gosey L L, Odds F C, Rex J H, Rinaldi M G, Sheehan D J, Walsh T J, Warnock D W. NCCLS publication M38-A—Reference Method for Broth Dilution Antifungal Susceptibility Testing of Filamentous Fungi; Approved Standard.

Aspergillus fumigatus = assay: MIC against A. fumigatus (NCCLS broth dilution); type: cell-based; details: for MIC: Aspergillus fumigatus, read-out: Minimum inhibitory concentration, A. fumigatus
Description: as §1, §2, §3

Trichophyton rubrum = assay: MIC against T. rubrum (NCCLS broth dilution); type: cell-based; details: for MIC: Trichophyton rubrum, read-out: Minimum inhibitory concentration, T. rubrum
Description: as §1, §2, §3

[1] = tested on: T. rubrum, T. mentagrophytes, C. albicans, C. neoformans and A. fumigatus; assay: MIC against the panel of fungi tested; type: cell-based; details: for fold less active than the corresponding oxaborole: 6-membered oxaborin vs 5-membered oxaborole (23a vs 9a, 23b vs 9b, 24 vs 19b); for fold increase in potency: 5-fluoro compound relative to its R^i = H analog (9b vs 9a, 10b vs 10a), strains tested
Description: MIC, or minimum inhibitory concentration, is the point where compound stops more than 90% of cell growth relative to an untreated control.
as §1, §2
Briefly, compounds were dissolved in DMSO and diluted in sterile water to give a working stock. Two-fold serial dilutions of the test compounds were prepared in 96-well plates. The plates were inoculated with the fungal suspensions to give a final inoculum size of 0.5−2.5×10^3 cells/mL for yeasts or 0.4−5×10^4 CFU/mL for filamentous fungi and then incubated for 24-168 h at 35° C. […] Pfaller M A, Chaturvedi V, Espinel-Ingroff A, Ghannoum M A, Gosey L L, Odds F C, Rex J H, Rinaldi M G, Sheehan D J, Walsh T J, Warnock D W. NCCLS publication M27-A2—Reference Method for Broth Dilution Antifungal Susceptibility Testing of Yeasts; Approved Standard—Second Edition. Wayne, P A: NCCLS; 2002 (Vol. 22, No. 15). • ii. Pfaller M A, Chaturvedi V, Espinel-Ingroff A, Ghannoum M A, Gosey L L, Odds F C, Rex J H, Rinaldi M G, Sheehan D J, Walsh T J, Warnock D W. NCCLS publication M38-A—Reference Method for Broth Dilution Antifungal Susceptibility Testing of Filamentous Fungi; Approved Standard. Wayne, P A: NCCLS; 2002 (Vol. 22, No. 16).

[2] = tested on: Trichophyton mentagrophytes; assay: MIC against T. mentagrophytes (NCCLS broth dilution); type: cell-based; details: for MIC: Trichophyton mentagrophytes, read-out: Minimum inhibitory concentration, T. mentagrophytes
Description: as §1, §2, §3

Cryptococcus neoformans = assay: MIC against C. neoformans (NCCLS broth dilution); type: cell-based; details: for MIC: Cryptococcus neoformans, read-out: Minimum inhibitory concentration, C. neoformans
Description: as §1, §2, §3

[3] = Table 1, over 90% reduction of growth, 24-168 h at 35° C.
[4] = 24 h, Table 1, over 90% reduction of growth, 24-168 h at 35° C.

Compound | MIC (Candida albicans; [3]) [µg/mL] | MIC (Aspergillus fumigatus; [3]) [µg/mL] | MIC (Trichophyton rubrum; [3]) [µg/mL] | MIC [2, 3] [µg/mL] | MIC (Cryptococcus neoformans; [3]) [µg/mL] | melting point [°C] | MIC (Candida albicans; Table 2, 1-phenyl series (9)) [µg/mL] | MIC (Aspergillus fumigatus; Table 2, 1-phenyl series (9)) [µg/mL] | MIC (Trichophyton rubrum; Table 2, 1-phenyl series (9)) [µg/mL] | MIC ([2]; Table 2, 1-phenyl series (9)) [µg/mL] | MIC (Cryptococcus neoformans; Table 2, 1-phenyl series (9)) [µg/mL] | other results
6-Fluoro-1-phenyl-1,2,3,4-tetrahydro-2,1-benzoxaborine [23a] | – | – | – | – | – | – | – | – | – | – | – | Minimum inhibitory concentration, C. albicans (Candida albicans; [3]): 8 µg/mL; Minimum inhibitory concentration, A. fumigatus (Aspergillus fumigatus; [3]): 16 µg/mL; Minimum inhibitory concentration, T. rubrum (Trichophyton rubrum; [3]): 8 µg/mL; fold less active than the corresponding oxaborole [1]: approximately 2 fold; Minimum inhibitory concentration, T. mentagrophytes [2, 3]: 8 µg/mL; Minimum inhibitory concentration, C. neoformans (Cryptococcus neoformans; [3]): 16 µg/mL
c1ccc(B2OCc3ccccc32)cc1 [9a, 1,3-Dihydro-1-phenyl-2,1-benzoxaborole] | 4 (≈ 20.6 µM) | 4 (≈ 20.6 µM) | 4 (≈ 20.6 µM) | 4 (≈ 20.6 µM) | 8 (≈ 41.2 µM) | – | – | – | – | – | – | Minimum inhibitory concentration, C. albicans (Candida albicans; Table 2, 1-phenyl series (9)): 4 µg/mL (≈ 20.6 µM); Minimum inhibitory concentration, A. fumigatus (Aspergillus fumigatus; Table 2, 1-phenyl series (9)): 4 µg/mL (≈ 20.6 µM); Minimum inhibitory concentration, T. rubrum (Trichophyton rubrum; Table 2, 1-phenyl series (9)): 4 µg/mL (≈ 20.6 µM); MIC values, range over the strains tested ([1]; all five fungi): 4 to 8 µg/mL; Minimum inhibitory concentration, T. mentagrophytes ([2]; Table 2, 1-phenyl series (9)): 4 µg/mL (≈ 20.6 µM); Minimum inhibitory concentration, C. neoformans (Cryptococcus neoformans; Table 2, 1-phenyl series (9)): 8 µg/mL (≈ 41.2 µM)
Fc1ccc2c(c1)COB2c1ccccc1 [9b, 1,3-Dihydro-5-fluoro-1-phenyl-2,1-benzoxaborole] | 0.5 (≈ 2.36 µM) | 2 (≈ 9.43 µM) | 1 (≈ 4.72 µM) | 2 (≈ 9.43 µM) | 2 (≈ 9.43 µM) | 90 to 99 | – | – | – | – | – | Minimum inhibitory concentration, C. albicans (Candida albicans; Table 2, 1-phenyl series (9)): 0.5 µg/mL (≈ 2.36 µM); Minimum inhibitory concentration, A. fumigatus (Aspergillus fumigatus; Table 2, 1-phenyl series (9)): 2 µg/mL (≈ 9.43 µM); Minimum inhibitory concentration, T. rubrum (Trichophyton rubrum; Table 2, 1-phenyl series (9)): 1 µg/mL (≈ 4.72 µM); fold increase in potency [1]: 2-8 fold; Minimum inhibitory concentration, T. mentagrophytes ([2]; Table 2, 1-phenyl series (9)): 2 µg/mL (≈ 9.43 µM); Minimum inhibitory concentration, C. neoformans (Cryptococcus neoformans; Table 2, 1-phenyl series (9)): 2 µg/mL (≈ 9.43 µM)
Fc1ccc(B2OCc3ccccc32)cc1 [9e, 1,3-Dihydro-1-(4-fluorophenyl)-2,1-benzoxaborole] | – | – | – | – | – | 53 to 55 | 4 (≈ 18.9 µM) | 2 (≈ 9.43 µM) | 8 (≈ 37.7 µM) | 4 (≈ 18.9 µM) | 2 (≈ 9.43 µM) | –
Fc1ccc2c(c1)COB2c1cccc(Cl)c1 [9f, 1-(3-Chlorophenyl)-1,3-dihydro-5-fluoro-2,1-benzoxaborole] | – | – | – | – | – | 112 to 114 | 0.25 (≈ 1.01 µM) | 2 (≈ 8.11 µM) | 4 (≈ 16.2 µM) | 8 (≈ 32.5 µM) | 0.5 (≈ 2.03 µM) | –
Fc1cccc(B2OCc3cc(F)ccc32)c1 [9g, 1,3-Dihydro-5-fluoro-1-(3-fluorophenyl)-2,1-benzoxaborole] | – | – | – | – | – | 80 to 82 | 0.5 (≈ 2.17 µM) | 1 (≈ 4.35 µM) | 1 (≈ 4.35 µM) | 2 (≈ 8.69 µM) | 1 (≈ 4.35 µM) | –
Fc1ccc(B2OCc3cc(F)ccc32)cc1 [9h, 1,3-Dihydro-5-fluoro-1-(4-fluorophenyl)-2,1-benzoxaborole] | – | – | – | – | – | 75 to 77 | 1 (≈ 4.35 µM) | 2 (≈ 8.69 µM) | 4 (≈ 17.4 µM) | 4 (≈ 17.4 µM) | 1 (≈ 4.35 µM) | –
Cc1cccc(B2OCc3cc(F)ccc32)c1 [9i, 1,3-Dihydro-5-fluoro-1-(3-methylphenyl)-2,1-benzoxaborole] | – | – | – | – | – | 48 to 49 | 1 (≈ 4.42 µM) | 0.5 (≈ 2.21 µM) | 2 (≈ 8.85 µM) | 4 (≈ 17.7 µM) | 0.5 (≈ 2.21 µM) | –
Cc1ccc(B2OCc3cc(F)ccc32)cc1 [9j, 1,3-Dihydro-5-fluoro-1-(4-methylphenyl)-2,1-benzoxaborole] | – | – | – | – | – | 48 to 49 | 0.5 (≈ 2.21 µM) | 0.5 (≈ 2.21 µM) | 2 (≈ 8.85 µM) | 2 (≈ 8.85 µM) | 0.5 (≈ 2.21 µM) | –
C(=Cc1ccccc1)B1OCc2ccccc21 [10a, 1,3-Dihydro-1-styryl-2,1-benzoxaborole] | 2 (≈ 9.09 µM) | 4 (≈ 18.2 µM) | 8 (≈ 36.4 µM) | 8 (≈ 36.4 µM) | 4 (≈ 18.2 µM) | 57 to 59 | – | – | – | – | – | –
Fc1ccc2c(c1)COB2C=Cc1ccccc1 [10b, 1,3-Dihydro-5-fluoro-1-styryl-2,1-benzoxaborole] | 0.5 (≈ 2.1 µM) | 1 (≈ 4.2 µM) | ≤ 1 | 2 (≈ 8.4 µM) | 0.5 (≈ 2.1 µM) | 84 to 86 | – | – | – | – | – | fold increase in potency [1]: 4-8 fold
CC1OB(O)c2ccc(F)cc21 (stereo not shown) [19c, 1,3-Dihydro-5-fluoro-1-hydroxy-3-methyl-2,1-benzoxaborolane] | – | – | – | – | – | – | – | – | – | – | – | Minimum inhibitory concentration, C. albicans (Candida albicans; [3]): 16 µg/mL (≈ 96.4 µM); Minimum inhibitory concentration, A. fumigatus (Aspergillus fumigatus; [3]): 16 µg/mL (≈ 96.4 µM); Minimum inhibitory concentration, T. rubrum (Trichophyton rubrum; [3]): 32 µg/mL (≈ 193 µM); fold decrease in activity ([1]; 3-methyl compound relative to 19b): 8-32 fold; Minimum inhibitory concentration, T. mentagrophytes [2, 3]: 16 µg/mL (≈ 96.4 µM); Minimum inhibitory concentration, C. neoformans (Cryptococcus neoformans; [3]): 32 µg/mL (≈ 193 µM)
c1ccc(B2OCCc3ccccc32)cc1 [23b, 1-Phenyl-1,2,3,4-tetrahydro-2,1-benzoxaborine] | – | – | – | – | – | – | – | – | – | – | – | MIC (Candida albicans; [4]): 8 µg/mL (≈ 38.4 µM); MIC (Aspergillus fumigatus; [4]): 8 µg/mL (≈ 38.4 µM); MIC (Trichophyton rubrum; [4]): 8 µg/mL (≈ 38.4 µM); fold less active than the corresponding oxaborole [1]: 4-16 fold; MIC [2, 4]: 8 µg/mL (≈ 38.4 µM); MIC (Cryptococcus neoformans; [4]): 8 µg/mL (≈ 38.4 µM)
C=CB1OCc2cc(F)ccc21 [compound 11, 1,3-Dihydro-5-fluoro-1-vinyl-2,1-benzoxaborole] | 1 (≈ 6.17 µM) | 2 (≈ 12.3 µM) | 4 (≈ 24.7 µM) | 2 (≈ 12.3 µM) | 4 (≈ 24.7 µM) | – | – | – | – | – | – | –
Fc1ccc2c(c1)COB2c1ccoc1 [compound 12, 1,3-Dihydro-5-fluoro-1-(furan-3-yl)-2,1-benzoxaborole] | 4 (≈ 19.8 µM) | 4 (≈ 19.8 µM) | 4 (≈ 19.8 µM) | 4 (≈ 19.8 µM) | 4 (≈ 19.8 µM) | – | – | – | – | – | – | –
Fc1ccc2c(c1)COB2c1ccsc1 [compound 13, 1,3-Dihydro-5-fluoro-1-(thiophen-3-yl)-2,1-benzoxaborole] | 1 (≈ 4.59 µM) | 1 (≈ 4.59 µM) | 1 (≈ 4.59 µM) | 4 (≈ 18.3 µM) | 1 (≈ 4.59 µM) | 33 to 35 | – | – | – | – | – | –
Cc1cscc1B1OCc2cc(F)ccc21 [compound 14, 1,3-Dihydro-5-fluoro-1-(4-methylthiophen-3-yl)-2,1-benzoxaborole] | 1 (≈ 4.31 µM) | 1 (≈ 4.31 µM) | 1 (≈ 4.31 µM) | 2 (≈ 8.62 µM) | 1 (≈ 4.31 µM) | 51 to 53 | – | – | – | – | – | –
Fc1ccc2c(c1)COB2c1cccnc1 [compound 15, 3-(1,3-Dihydro-5-fluoro-2,1-benzoxaborol-1-yl)pyridine] | 4 (≈ 18.8 µM) | 16 (≈ 75.1 µM) | 16 (≈ 75.1 µM) | 32 (≈ 150 µM) | 16 (≈ 75.1 µM) | 210 to 212 | – | – | – | – | – | change in activity against C. albicans (Candida albicans; relative to 9b, in words): no change in activity; fold decrease in activity against the dermatophytes ([1]; T. rubrum and T. mentagrophytes, relative to 9b): 16-64 fold; fold reduction in activity against C. neoformans and A. fumigatus ([1]; relative to 9b): 4 fold
OB1OCCc2cc(F)ccc21 [compound 24, 6-Fluoro-1-hydroxy-1,2,3,4-tetrahydro-2,1-benzoxaborine] | 64 (≈ 386 µM) | 32 (≈ 193 µM) | 32 (≈ 193 µM) | 32 (≈ 193 µM) | > 64 | – | – | – | – | – | – | fold less active than the corresponding oxaborole [1]: 32-256 fold
